In ChEMBL document CHEMBL5335768, “Expanding the knowledge around antitubercular 5-(2-aminothiazol-4-yl)isoxazole-3-carboxamides: Hit-to-lead optimization and release of a novel antitubercular chemotype via scaffold derivatization” (Eur J Med Chem, 2023):

Key:
[1] = system: Mycobacterium tuberculosis; experiment: Antitubercular activity against STR/INH/RIF/EMB/ETH-resistant Mycobacterium tuberculosis IC1 assessed as inhibition of bacterial growth measured after 3 weeks by broth microdilution method; type: functional; conditions: IC1, 504 h
[2] = system: Mycobacterium tuberculosis; experiment: microbe, parasite or virus in culture; conditions: IC2, 504 h

Compound: NNC(=O)c1ccncc1 [ISONIAZID]
- MIC90 [1]: > 0.2 µg/mL
- MIC90 [2]: > 0.2 µg/mL
